Data from US11066629B2, “Lipid metabolism-promoting composition including isoxanthohumol” (SUNTORY HOLDINGS LIMITED, priority 2016, dated 2021).

Legend:
[1] = test system: type II diabetes mouse model; details: feed containing xanthohumol at 1%; cited from earlier work
[2] = Solubility in water under ice cooling conditions (Experiment A); format: physicochemical; details: distilled water, ppm on w/v basis
Description: (§1) The solubility of each of the standard samples of xanthohumol and isoxanthohumol in water (Experiment A) and various solvents (Experiment B) under ice cooling conditions was studied to evaluate the suitability for beverage applications. Xanthohumol and isoxanthohumol were the standard samples obtained in Preparation Example 1 (purity of 95% or higher).
A sample containing distilled water and xanthohumol or isoxanthohumol having a weight corresponding to 0.2% (w/v) of the distilled water was prepared, and each standard sample was allowed to dissolve in distilled water as much as possible by stirring in a vortex mixer for 10 seconds or longer and shaking for about 60 minutes under ice cooling conditions. Further, centrifugation was performed (12,000 rpm, 4° C., for 5 minutes), and the supernatant was collected. This procedure was repeated three times. The finally obtained supernatant was used as a xanthohumol saturated aqueous solution or an isoxanthohumol saturated aqueous solution. The saturated aqueous solution was 100-fold diluted with a 25% aqueous ethanol solution to obtain a sample for analysis. The sample was subjected to quantitative analysis using an LC-MS/MS system (TSQ Quantiva, Thermo Fisher Scientific Inc.) to evaluate the solubility in water. […] Note that ppm is ppm on w/v basis unless otherwise specified. […]

[3] = test system: high-fat diet mouse model; details: repeated dose 30 mg/kg/day; cited from earlier work
[4] = heating; isoxanthohumol at 100° C.; cited from earlier work
[5] = Effect of intake on fat burning, respiratory quotient (Oxymax respirometer); format: in vivo, mice (C57BL/6J); details: isoxanthohumol 0.2% in feed, 7 days, vs control group
Description: The effect of isoxanthohumol intake on fat burning was studied by the following procedure using a respirometer “Oxymax” (Bio Research Center Co., Ltd.).
As for the group structure, there were two groups: a control group and an isoxanthohumol 0.2% group. Eight mice (C57BL/6J, male, 14 weeks of age, CLFA Japan, Inc.) were purchased and acclimatized for about one week. Then, the mice were divided into the control group and the isoxanthohumol 0.2% group (n=4 in each group) by the stratified continuous randomization method based on body weight. Control diet “D12450J” (Research Diets) was used as basic feed. During the test period, the control group was fed with the basic feed, and the isoxanthohumol 0.2% group was fed with mixed feed of the basic feed and the test substance (isoxanthohumol obtained in Preparation Example 1) at a weight ratio of 0.2% relative to the basic feed.
The test period (a period in which the test substance was ingested, and breath analysis was performed) was seven days. […] Using Oxymax (Bio Research Center Co., Ltd.), the oxygen consumption (VO2) and the carbon dioxide output (VCO2) of each individual were measured over time and recorded.
The respiratory quotient (RQ) was calculated using the following formula 1 from the oxygen consumption (VO2) and the carbon dioxide output (VCO2) at each point. […]

[6] = test system: apoptosis inhibitor of macrophage (AIM); details: mouse macrophage-derived cells (J774.1) cultured with isoxanthohumol; cited from earlier work
Acox1 gene = assay: Gene expression in liver by quantitative PCR, high-fat diet model; format: in vivo, mice (C57BL/6J); details: isoxanthohumol 30 or 60 mg/kg/day oral, 14 days
Description: (§2) Using the high-fat diet model, the effect of isoxanthohumol intake on expression of a gene related to fat burning was studied by the following procedure.
(§3) Thirty-two mice (C57BL/6J, male, 8 weeks of age, CLEA Japan, Inc.) were purchased and acclimatized for about one week. Then, the mice were divided into groups (n=8 in each group) in the group structure shown in Table 2 by the stratified continuous randomization method based on body weight. […] In Table 2, “Regular diet” is control diet “D12450J” (Research Diets), and “60 kcal % High-fat diet” is very high-fat diet “D12492” (Research Diets). Isoxanthohumol as the test substance was the standard sample (purity of 95% or higher) obtained in Preparation Example 1. […]
(§4) The test period was 14 days. […] The amount of the test substance and the volume of the solution were calculated based on the latest body weight on the administration date. […]
(§5) Using the extracted liver and brown adipose tissue, the effect of isoxanthohumol intake on expression of multiple genes related to lipid metabolism was studied. […] Then, cDNAs were synthesized using High-Capacity cDNA Reverse Transcription Kit (product name, Life Technologies Corporation), and the expression levels of genes shown in Table 3 were examined by quantitative PCR (TaqMan probe method) using Fast Universal PCR Master Mix (product name, Life Technologies Corporation). […]

Cpt1a gene = assay: as above; format: in vivo, mice (C57BL/6J); details: isoxanthohumol 30 or 60 mg/kg/day oral, 14 days
Description: as §2, §3, §4, §5

[7] = test system: mouse preadipocyte (3T3-L1); details: 3T3-L1, concentration without cytotoxicity; cited from earlier work
high-fat diet model [8] = assay: Measurement of triglyceride (TG) content in liver; format: in vivo, Mice (C57BL/6J); details: livers of Example 1
Method: The neutral fat content (also referred to as “triglyceride content” or “TG content”) in the liver was measured using the liver extracted in Example 1. Specifically, the extracted liver was cut to obtain a section of about 30 mg, and 1 mL of a mixed solution containing methanol (Nacalai Tesque, Inc.) and chloroform (Nacalai Tesque, Inc.) at a ratio of 1:1 was added to the section which was then crushed with a bead beater, whereby triglyceride in the liver was extracted. After centrifugation (12000 g, for 15 minutes), the supernatant was collected, the solution was distilled off, and isopropanol was added for re-dissolution, whereby a sample was prepared. The triglyceride content in the sample was measured using Triglyceride E Test Wako (Wako), and the triglyceride content (mg/g) in the liver per unit weight was calculated. The data was presented as average f standard error. Student's t-test was used as a statistical test, and a difference with p<0.05 was considered significant.

[9] = Solubility of isoxanthohumol in various solvents under ice cooling conditions (Experiment B); format: physicochemical; details: for solubility relative to aqueous solution without γ-cyclodextrin: ice cooling
Description: as §1
Distilled water, a hop extract, and 0.2% (w/v) or 1.0% (w/v) aqueous solution of β-cyclodextrin or γ-cyclodextrin (both Nacalai Tesque, Inc.) were prepared as solvents to study the solubility of isoxanthohumol under ice cooling conditions. As for the hop extract, hops (Saaz) that had been crushed into pellets were extracted with distilled water in an amount 10 times the weight of the pellets by shaking at room temperature for about 60 minutes, and the filtrate obtained by suction filtration was used for the test. The isoxanthohumol concentration in the hop extract was less than 0.5 ppm. A sample containing a solvent and isoxanthohumol having a weight corresponding to 0.2% (w/v) of the solvent was prepared for each of the above solvents, and the standard sample was allowed to dissolve in water as much as possible by stirring in a vortex mixer for 10 seconds or longer and shaking for about 60 minutes under ice cooling conditions. Centrifugation and quantitative analysis were performed as in Experiment A to evaluate the solubility of isoxanthohumol in each solvent.

Pgc-1α gene = assay: Gene expression in brown adipose tissue by quantitative PCR, high-fat diet model; format: in vivo, mice (C57BL/6J); details: isoxanthohumol 30 or 60 mg/kg/day oral, 14 days
Description: as §2, §3, §4, §5

Ucp1 gene = assay: as above; format: in vivo, mice (C57BL/6J); details: isoxanthohumol 30 or 60 mg/kg/day oral, 14 days
Description: as §2, §3, §4, §5

high-fat diet model [10] = assay: Anti-obesity action in high-fat diet model (body weight, fat weight); format: in vivo, Mice (C57BL/6J)
Description: The effect of isoxanthohumol on body weight increase and fat accumulation associated with high-fat diet was studied by the following procedure. In the table, “Regular diet” is control diet “D12450J” (product name, Research Diets); “60 kcal % High-fat diet” is very high-fat diet “D12492” (product name, Research Diets); and “Catechins” is a preparation “Polyphenon 70A” (product name, Mitsui Norin Co., Ltd.). Xanthohumol and isoxanthohumol were the standard samples (purity of 95% or higher) obtained in Preparation Example 1. The “Dose” in the table indicates the dose (mg) of the test substance per day per kg body weight. The main evaluation items were the body weight and the fat weight (fat around epididymis, fat around kidney/posterior abdominal wall, and fat around mesentery) of each individual (each item was measured on the last day: day 55 of administration). Mice (C57BL/6J, male, 7 weeks of age, CLEA Japan, Inc.) were purchased, and they were quarantine and acclimatized for one week. […] The selected animals were divided into groups (n=8 in each group) in the group structure shown in Table 1 by the stratified continuous randomization method based on body weight at the end of the acclimatization period. They were fed with free access to specific basic feed and water. The test substance was orally administered once per day for eight weeks. The test substance was administered until day 55, with the dosing start date defined as day 0. The duration was regarded as an administration period. During the administration period, the feed was completely replaced with a frequency of twice a week. The volume of a dosing solution was 10 mL/kg, and the amount of the test substance and the volume of the solution were calculated based on the latest body weight on the administration date. After the administration period, adipose tissue (fat around epididymis, fat around kidney/posterior abdominal wall, fat around mesentery) was extracted, and the weight was measured. Statistical analysis was performed as follows. Specifically, the average and standard error were calculated for body weight and fat weight in each group. Statistical processing was performed using Microsoft Office Excel 2003, and significant difference was tested between the regular diet group and the high-fat diet group and between the high-fat diet group and the groups excluding the regular diet group. As a statistical method, the homogeneity of variance was tested using the F-test. Student's T-test was used for homoscedasticity, and Aspin-Welch t-test was used for heteroscedasticity.

[11] = 60 mg/kg/day oral, day 55, compared to high-fat diet group
[12] = 180 mg/kg/day oral, day 55, compared to high-fat diet group

COc1cc(O)c(CC=C(C)C)c(O)c1C(=O)/C=C/c1ccc(O)cc1 [xanthohumol]
body weight gain [1]: tendency of suppression of body weight gain
weight of fat around kidney or the like [1]: decrease
Solubility in water (ice cooling conditions) [2]: Less than 0.5 ppm
body weight increase [3]: suppression of body weight increase
thermal stability [4]: thermally unstable

COc1cc(O)c(CC=C(C)C)c2c1C(=O)CC(c1ccc(O)cc1)O2 (stereo not drawn) [isoxanthohumol]
Solubility in water (ice cooling conditions) [2]: 6.3 ppm
respiratory quotient (RQ) [5]: lower
expression of lipolysis-promoting factor AIM [6]: enhanced expression
gene expression level of Acox1 gene in the liver (Acox1 gene): significant increase
gene expression level of Cpt1a gene in the liver (Cpt1a gene): significant increase
differentiation of the cells into adipocytes [7]: did not suppress differentiation
neutral fat (triglyceride) content in the liver (high-fat diet model [8]; isoxanthohumol-administered group vs high-fat diet group): significantly lower
action on neutral fat content in the liver compared with xanthohumol (high-fat diet model [8]): stronger than that of xanthohumol
thermal stability [4]: stable even at a high temperature of 100 °C
solubility relative to aqueous solution without γ-cyclodextrin ([9]; 0.2% (w/v) γ-cyclodextrin): about 5 times
solubility relative to aqueous solution without γ-cyclodextrin ([9]; 1.0% (w/v) γ-cyclodextrin): about 18 times
Solubility (ice cooling conditions) ([9]; solvent: 0.2% β-Cyclodextrin): 18.4 ppm
Solubility (ice cooling conditions) ([9]; solvent: 0.2% γ-Cyclodextrin): 33.6 ppm
Solubility (ice cooling conditions) ([9]; solvent: 1.0% β-Cyclodextrin): 52.0 ppm
Solubility (ice cooling conditions) ([9]; solvent: 1.0% γ-Cyclodextrin): 115.5 ppm
Solubility (ice cooling conditions) ([9]; solvent: Distilled water): 6.3 ppm
Solubility (ice cooling conditions) ([9]; solvent: Hop extract): 13.7 ppm
Pgc-1α gene expression in the brown adipose tissue (Pgc-1α gene): significant increase
expression level of Ucp1 gene in brown adipose tissue (Ucp1 gene): increase in expression level
fat weight around epididymis (high-fat diet model [10]; [11]): significantly low
fat weight around mesentery (high-fat diet model [10]; [11]): significantly low
fat weight around epididymis (high-fat diet model [10]; [12]): significantly low
fat weight around kidney/posterior abdominal wall (high-fat diet model [10]; [12]): significantly low
fat weight around mesentery (high-fat diet model [10]; [12]): significantly low
average body weight compared with xanthohumol medium-dose group (high-fat diet model [10]; isoxanthohumol 60 mg/kg vs xanthohumol 60 mg/kg, day 55): equivalent to that of the xanthohumol medium-dose group
average body weight compared with catechins group (high-fat diet model [10]; isoxanthohumol 180 mg/kg vs catechins 300 mg/kg, day 55): better result
body weight (high-fat diet model [10]; isoxanthohumol high-dose 180 mg/kg/day oral, day 55, compared to high-fat diet group): significantly low
body weight (high-fat diet model [10]; isoxanthohumol medium-dose 60 mg/kg/day oral, day 55, compared to high-fat diet group): tended to have a low body weight
